Article PMC8453901, “GLPG1205, a GPR84 Modulator: Safety, Pharmacokinetics, and Pharmacodynamics in Healthy Subjects” (Clinical Pharmacology in Drug Development, 2021)

How the values were obtained:
CYP2C8 = test system: CYP2C8; set-up: method as in data on file at Galapagos; settings: in vitro; ref data on file at Galapagos; cited from earlier work
CYP2C19 = test system: CYP2C19; set-up: method as in data on file at Galapagos; settings: in vitro; ref data on file at Galapagos; cited from earlier work
[1] = set-up: method as in PMID 32902984; settings: monkeys, up to 30 mg/kg/d; cited from earlier work
[2] = Safety and tolerability, study 1 SAD part; type: in vivo, human
Description: Safety and tolerability were assessed on the basis of adverse events (AEs), which were monitored throughout both studies. Additional safety assessments included vital signs (including supine [and standing in study 2] heart rate, systolic and diastolic blood pressure, and oral body temperature), 12‐lead electrocardiogram (ECG), clinical laboratory tests (hematology, coagulation [study 2 only], serum/plasma chemistry, urinalysis, urine drug screen, serology, and alcohol breath test), and a comprehensive physical examination. In the SAD part of study 1, clinical laboratory tests, physical examination, and vital signs were assessed at the screening visit, at the time of dosing (0 hours after dose), 24 hours after dosing and at follow‐up (7 to 10 days after the final dose). Vital signs were additionally observed 2 hours after dosing, and the 12‐lead ECG was additionally completed at 1, 2, 6, 8, and 12 hours after dosing. In the MAD part of study 1, all additional safety assessments were performed at screening; days 1, 2, 8, 14, and 15; and at follow‐up. In study 2, additional safety assessments were performed at screening (between 21 and 2 days before the first study drug administration); days 1, 2, 5, 10, 14, 15, and 20 (clinical laboratory tests were not performed on day 20); at early discontinuation; and at follow‐up. For study 2, renal function tests (measurement of estimated creatinine clearance rate using the Cockcroft‐Gault equation) were also included in the clinical laboratory tests for safety assessment.
In both studies, the safety analysis was descriptive and focused on changes from baseline and treatment‐emergent findings.

CYP2C9 = test system: CYP2C9; set-up: method as in data on file at Galapagos; settings: in vitro; ref data on file at Galapagos; cited from earlier work
CYP1A2 = test system: CYP1A2; set-up: method as in data on file at Galapagos, 8, 9; settings: 100 mg once daily, healthy male subjects; ref data on file at Galapagos, 8, 9; cited from earlier work

## O=c1nc(OC[C@@H]2COCCO2)cc2n1CCc1cc(C#CC3CC3)ccc1-2 [GLPG1205, 9‐cyclopropylethynyl‐2‐((S)‐1‐[1,4]dioxan‐2‐ylmethoxy)‐6,7‐dihydropyrimido[6,1‐a]isoquinolin‐4‐one]
CYP2C8
  inhibition of CYP2C8: weak inhibition
CYP2C19
  inhibition of CYP2C19: weak inhibition
[1]
  dose-proportionality of exposure: increased dose‐proportionally
[2]; SAD part, all doses
  subjects with nausea (most frequent TEAE): 4 subjects
[2]; single 10 mg (n = 6)
  Any TEAE: 2 (33.3) number of subjects (%)
  Dizziness (TEAE): 0 number of subjects (%)
  Gastrointestinal disorders (TEAE): 0 number of subjects (%)
  Headache (TEAE): 1 (16.7) number of subjects (%)
  Hot flush (TEAE): 0 number of subjects (%)
  Infections and infestations (TEAE): 1 (16.7) number of subjects (%)
  Musculoskeletal and connective tissue disorders (TEAE): 0 number of subjects (%)
  Nausea (TEAE): 0 number of subjects (%)
  Nervous system disorders (TEAE): 1 (16.7) number of subjects (%)
  Oropharyngeal pain (TEAE): 0 number of subjects (%)
  Respiratory, thoracic, and mediastinal disorders (TEAE): 0 number of subjects (%)
  Somnolence (TEAE): 0 number of subjects (%)
  Torticollis (TEAE): 0 number of subjects (%)
  Urethritis chlamydial (TEAE): 1 (16.7) number of subjects (%)
  Vascular disorders (TEAE): 0 number of subjects (%)
[2]; single 30 mg (n = 6)
  Any TEAE: 1 (16.7) number of subjects (%)
  Dizziness (TEAE): 0 number of subjects (%)
  Gastrointestinal disorders (TEAE): 0 number of subjects (%)
  Headache (TEAE): 0 number of subjects (%)
  Hot flush (TEAE): 0 number of subjects (%)
  Infections and infestations (TEAE): 0 number of subjects (%)
  Musculoskeletal and connective tissue disorders (TEAE): 0 number of subjects (%)
  Nausea (TEAE): 0 number of subjects (%)
  Nervous system disorders (TEAE): 1 (16.7) number of subjects (%)
  Oropharyngeal pain (TEAE): 0 number of subjects (%)
  Respiratory, thoracic, and mediastinal disorders (TEAE): 0 number of subjects (%)
  Somnolence (TEAE): 1 (16.7) number of subjects (%)
  Torticollis (TEAE): 0 number of subjects (%)
  Urethritis chlamydial (TEAE): 0 number of subjects (%)
  Vascular disorders (TEAE): 0 number of subjects (%)
[2]; single 90 mg (n = 6)
  Any TEAE: 0 number of subjects (%)
  Dizziness (TEAE): 0 number of subjects (%)
  Gastrointestinal disorders (TEAE): 0 number of subjects (%)
  Headache (TEAE): 0 number of subjects (%)
  Hot flush (TEAE): 0 number of subjects (%)
  Infections and infestations (TEAE): 0 number of subjects (%)
  Musculoskeletal and connective tissue disorders (TEAE): 0 number of subjects (%)
  Nausea (TEAE): 0 number of subjects (%)
  Nervous system disorders (TEAE): 0 number of subjects (%)
  Oropharyngeal pain (TEAE): 0 number of subjects (%)
  Respiratory, thoracic, and mediastinal disorders (TEAE): 0 number of subjects (%)
  Somnolence (TEAE): 0 number of subjects (%)
  Torticollis (TEAE): 0 number of subjects (%)
  Urethritis chlamydial (TEAE): 0 number of subjects (%)
  Vascular disorders (TEAE): 0 number of subjects (%)
[2]; single 200 mg (n = 6)
  Any TEAE: 1 (16.7) number of subjects (%)
  Dizziness (TEAE): 0 number of subjects (%)
  Gastrointestinal disorders (TEAE): 1 (16.7) number of subjects (%)
  Headache (TEAE): 0 number of subjects (%)
  Hot flush (TEAE): 0 number of subjects (%)
  Infections and infestations (TEAE): 0 number of subjects (%)
  Musculoskeletal and connective tissue disorders (TEAE): 0 number of subjects (%)
  Nausea (TEAE): 1 (16.7) number of subjects (%)
  Nervous system disorders (TEAE): 0 number of subjects (%)
  Oropharyngeal pain (TEAE): 0 number of subjects (%)
  Respiratory, thoracic, and mediastinal disorders (TEAE): 0 number of subjects (%)
  Somnolence (TEAE): 0 number of subjects (%)
  Torticollis (TEAE): 0 number of subjects (%)
  Urethritis chlamydial (TEAE): 0 number of subjects (%)
  Vascular disorders (TEAE): 0 number of subjects (%)
[2]; single 400 mg (n = 6)
  Any TEAE: 3 (50.0) number of subjects (%)
  Dizziness (TEAE): 0 number of subjects (%)
  Gastrointestinal disorders (TEAE): 1 (16.7) number of subjects (%)
  Headache (TEAE): 1 (16.7) number of subjects (%)
  Hot flush (TEAE): 1 (16.7) number of subjects (%)
  Infections and infestations (TEAE): 0 number of subjects (%)
  Musculoskeletal and connective tissue disorders (TEAE): 1 (16.7) number of subjects (%)
  Nausea (TEAE): 1 (16.7) number of subjects (%)
  Nervous system disorders (TEAE): 1 (16.7) number of subjects (%)
  Oropharyngeal pain (TEAE): 0 number of subjects (%)
  Respiratory, thoracic, and mediastinal disorders (TEAE): 0 number of subjects (%)
  Somnolence (TEAE): 0 number of subjects (%)
  Torticollis (TEAE): 1 (16.7) number of subjects (%)
  Urethritis chlamydial (TEAE): 0 number of subjects (%)
  Vascular disorders (TEAE): 1 (16.7) number of subjects (%)
[2]; single 600 mg (n = 6)
  Any TEAE: 0 number of subjects (%)
  Dizziness (TEAE): 0 number of subjects (%)
  Gastrointestinal disorders (TEAE): 0 number of subjects (%)
  Headache (TEAE): 0 number of subjects (%)
  Hot flush (TEAE): 0 number of subjects (%)
  Infections and infestations (TEAE): 0 number of subjects (%)
  Musculoskeletal and connective tissue disorders (TEAE): 0 number of subjects (%)
  Nausea (TEAE): 0 number of subjects (%)
  Nervous system disorders (TEAE): 0 number of subjects (%)
  Oropharyngeal pain (TEAE): 0 number of subjects (%)
  Respiratory, thoracic, and mediastinal disorders (TEAE): 0 number of subjects (%)
  Somnolence (TEAE): 0 number of subjects (%)
  Torticollis (TEAE): 0 number of subjects (%)
  Urethritis chlamydial (TEAE): 0 number of subjects (%)
  Vascular disorders (TEAE): 0 number of subjects (%)
[2]; single 800 mg (n = 6)
  Any TEAE: 5 (83.3) number of subjects (%)
  Dizziness (TEAE): 1 (16.7) number of subjects (%)
  Gastrointestinal disorders (TEAE): 2 (33.3) number of subjects (%)
  Headache (TEAE): 1 (16.7) number of subjects (%)
  Hot flush (TEAE): 0 number of subjects (%)
  Infections and infestations (TEAE): 0 number of subjects (%)
  Musculoskeletal and connective tissue disorders (TEAE): 0 number of subjects (%)
  Nausea (TEAE): 2 (33.3) number of subjects (%)
  Nervous system disorders (TEAE): 3 (50.0) number of subjects (%)
  Oropharyngeal pain (TEAE): 2 (33.3) number of subjects (%)
  Respiratory, thoracic, and mediastinal disorders (TEAE): 2 (33.3) number of subjects (%)
  Somnolence (TEAE): 1 (16.7) number of subjects (%)
  Torticollis (TEAE): 0 number of subjects (%)
  Urethritis chlamydial (TEAE): 0 number of subjects (%)
  Vascular disorders (TEAE): 0 number of subjects (%)
CYP2C9
  inhibition of CYP2C9: weak inhibition
CYP1A2
  effect on exposure of CYP1A2: did not affect the exposure
